US20230027361A1, “METTL3 MODULATORS” (priority 2019, published 2023)
Read-outs that look alike come from different tables or passages of the source.

Key:
MOLM-13 cells [1] = assay: MOLM-13 48 Hour Cell Proliferation Assay; assay type: cell-based; conditions: Homo sapiens
Experimental: MOLM-13 (DSMZ) cells were seeded at 1000 cells per well in a volume of 44 μL in a Falcon 384-well tissue culture treated clear bottom microplate in RPMI 1640 media containing 10% fetal bovine serum using a Multidrop Combi (ThermoFisher Scientific). Cells were incubated overnight at 37° C. in a humidified tissue culture incubator. The Mosquito® HTS Liquid Handler was used to make a compound/media intermediate plate by aliquoting 1 μL of compound from the initial compound dilution plate (concentrations ranging from 10.0 mM to 38.0 nM in 100% DMSO) into a V bottom 384-well screen matrix plate containing 49 μL of media containing the appropriate serum (50-fold dilution, 2% DMSO). The Apricot liquid handling system was used to transfer 6.2 μL compounds from the intermediate plate into the Falcon 384-well tissue culture plate containing 44 μL cells (10-point, 4-fold dilution spanning concentrations 25.0 μM to […], 0.25% DMSO final), and placed in a humidified tissue culture incubator at 37° C. After 48 hours, 25 μL of Cell Titer-Glo reagent (Promega) was added to each well using a Multidrop Combi. The plate was protected from light and placed on an IKA plate shaker for at 300 rpm for 10 minutes at room temperature. The plate was read on an EnVision plate reader (Perkin Elmer) using the Ultra Sensitive Luminescence protocol. Data analysis was performed by normalizing the raw luminescence units to an average of the positive control values for staurosporine (100% cell death) and the negative control values for DMSO (0% cell death). An IC50 was calculated using a 4-parameter logistic nonlinear regression model in GraphPad Prism.

MOLM-13 cells [2] = assay: MOLM-13 96 Hour Cell Proliferation Assay; assay type: cell-based; conditions: Homo sapiens
Summary of the method: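 MOLM-13 cells in RPMI 1640 with 10% FBS were plated overnight at 37 °C, then exposed to compound dilutions at 0.25% DMSO final for 96 h. Viability was read by CellTiter-Glo luminescence, normalised to staurosporine (100% death) and DMSO (0% death) controls, and IC50 was fitted by 4-parameter logistic regression.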

PRMT5-MEP50 = PRMT5-MEP50 (Homo sapiens, UniProt O14744); assay: PRMT5 Assay (PRMT5 biochemical assay)
Sequence of PRMT5-MEP50 (O14744 whole entry): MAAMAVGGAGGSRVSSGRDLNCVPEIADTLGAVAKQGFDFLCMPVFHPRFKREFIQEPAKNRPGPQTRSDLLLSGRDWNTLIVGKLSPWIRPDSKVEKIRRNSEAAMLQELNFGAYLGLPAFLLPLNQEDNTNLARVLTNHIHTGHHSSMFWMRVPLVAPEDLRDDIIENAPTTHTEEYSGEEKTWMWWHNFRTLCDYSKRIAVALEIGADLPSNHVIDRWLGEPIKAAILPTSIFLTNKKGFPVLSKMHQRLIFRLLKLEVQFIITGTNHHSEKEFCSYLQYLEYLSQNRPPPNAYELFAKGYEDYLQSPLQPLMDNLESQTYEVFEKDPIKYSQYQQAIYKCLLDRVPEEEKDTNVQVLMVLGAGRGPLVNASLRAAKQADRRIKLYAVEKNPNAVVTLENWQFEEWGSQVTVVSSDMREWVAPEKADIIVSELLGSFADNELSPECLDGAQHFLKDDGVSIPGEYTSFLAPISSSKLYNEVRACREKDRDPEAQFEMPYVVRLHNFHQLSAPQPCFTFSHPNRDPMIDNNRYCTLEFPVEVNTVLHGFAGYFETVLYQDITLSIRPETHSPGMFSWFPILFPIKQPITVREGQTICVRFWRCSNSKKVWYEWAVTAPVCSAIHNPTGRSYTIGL
Sequence of PRMT5-MEP50 (Q9BQA1 whole entry partner): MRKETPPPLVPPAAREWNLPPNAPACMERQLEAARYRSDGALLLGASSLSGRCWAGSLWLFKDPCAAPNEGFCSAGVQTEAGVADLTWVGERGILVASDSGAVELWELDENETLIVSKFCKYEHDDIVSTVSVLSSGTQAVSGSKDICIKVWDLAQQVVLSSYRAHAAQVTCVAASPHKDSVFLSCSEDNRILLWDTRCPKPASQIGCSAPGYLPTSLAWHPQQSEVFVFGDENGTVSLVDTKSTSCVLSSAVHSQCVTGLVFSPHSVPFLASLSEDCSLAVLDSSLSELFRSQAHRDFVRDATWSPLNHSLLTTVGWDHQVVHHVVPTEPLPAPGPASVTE
Summary of the method: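 PRMT5-MEP50 (2.5 nM final) preincubated 5 min with compound, then reacted 60 min at ambient temperature with 100 nM biotinylated N-acetyl histone H4 peptide and 250 nM 3H-SAM in 20 mM Tris-HCl pH 8.0, 1 mM DTT, 0.01% Tween. Quenched with 15 μM cold SAM; methylated peptide captured on streptavidin flashplates, scintillation counted.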

[3] = system: m6A in cellular mRNA of MOLM-13 cells; assay: m6A-mRNA LC-MS/MS Assay (m6A cellular assay); assay type: cell-based; conditions: Homo sapiens, MOLM-13, read-out: m^6A IC50
Experimental: Cells were harvested by centrifugation followed by mRNA extraction using DIRECT Dynabeads mRNA DIRECT kit (Life Technologies). mRNA was quantified on NanoDrop spectrophotometer (Thermo Fisher Scientific) and digested into single nucleosides using Nucleoside Digestion Mix (New England Biolabs). […] Quantification is performed in comparison with the standard curve, obtained from pure nucleoside standards (Selleck Chemicals) running with the same batch of samples. Percentage m^6A in cellular mRNA is calculated as 100*(m^6A/A).

METTL1/WDR4 = METTL1/WDR4 (Homo sapiens, UniProt Q9UBP6); assay: METTL1 Assay (METTL1 biochemical assay)
Sequence of METTL1/WDR4 (Q9UBP6 whole entry, species assumed): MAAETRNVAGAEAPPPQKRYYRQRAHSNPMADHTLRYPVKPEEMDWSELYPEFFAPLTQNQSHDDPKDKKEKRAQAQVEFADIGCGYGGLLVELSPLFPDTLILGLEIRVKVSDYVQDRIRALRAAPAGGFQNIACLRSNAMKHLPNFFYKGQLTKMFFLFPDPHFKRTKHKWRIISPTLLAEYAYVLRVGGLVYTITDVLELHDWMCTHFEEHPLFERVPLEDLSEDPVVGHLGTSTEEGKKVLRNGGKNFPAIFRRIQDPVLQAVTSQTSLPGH
Sequence of METTL1/WDR4 (P57081 whole entry partner, species assumed): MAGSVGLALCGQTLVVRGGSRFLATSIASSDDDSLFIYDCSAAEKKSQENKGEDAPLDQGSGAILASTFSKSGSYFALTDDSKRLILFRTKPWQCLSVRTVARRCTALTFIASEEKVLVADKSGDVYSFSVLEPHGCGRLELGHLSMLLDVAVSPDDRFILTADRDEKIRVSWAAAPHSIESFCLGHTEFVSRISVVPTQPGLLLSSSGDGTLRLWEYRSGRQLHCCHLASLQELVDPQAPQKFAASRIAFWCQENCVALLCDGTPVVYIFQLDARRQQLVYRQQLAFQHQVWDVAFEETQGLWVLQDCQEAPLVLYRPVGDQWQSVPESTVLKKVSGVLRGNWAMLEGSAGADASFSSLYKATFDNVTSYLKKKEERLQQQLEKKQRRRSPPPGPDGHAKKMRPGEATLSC
Summary of the method: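 Radiometric methyltransfer by METTL1/WDR4 (6.25 nM f.c., 5 min preincubation) at ambient temperature in HEPES pH 7.5, KCl, MgCl2, DTT; started with 25 nM 3′-biotinylated RNA and 60 nM 3H-SAM, run 20 min, quenched with 15 μM cold SAM. Product captured on streptavidin flashplates (2 h, 25° C), counted by scintillation.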

METTL3/METTL14 = METTL3/METTL14 (Homo sapiens, UniProt Q86U44); assay: METTL3-14 Standard Enzyme Assay (METTL3 biochemical assay)
Sequence of METTL3/METTL14 (Q86U44 whole entry, species assumed): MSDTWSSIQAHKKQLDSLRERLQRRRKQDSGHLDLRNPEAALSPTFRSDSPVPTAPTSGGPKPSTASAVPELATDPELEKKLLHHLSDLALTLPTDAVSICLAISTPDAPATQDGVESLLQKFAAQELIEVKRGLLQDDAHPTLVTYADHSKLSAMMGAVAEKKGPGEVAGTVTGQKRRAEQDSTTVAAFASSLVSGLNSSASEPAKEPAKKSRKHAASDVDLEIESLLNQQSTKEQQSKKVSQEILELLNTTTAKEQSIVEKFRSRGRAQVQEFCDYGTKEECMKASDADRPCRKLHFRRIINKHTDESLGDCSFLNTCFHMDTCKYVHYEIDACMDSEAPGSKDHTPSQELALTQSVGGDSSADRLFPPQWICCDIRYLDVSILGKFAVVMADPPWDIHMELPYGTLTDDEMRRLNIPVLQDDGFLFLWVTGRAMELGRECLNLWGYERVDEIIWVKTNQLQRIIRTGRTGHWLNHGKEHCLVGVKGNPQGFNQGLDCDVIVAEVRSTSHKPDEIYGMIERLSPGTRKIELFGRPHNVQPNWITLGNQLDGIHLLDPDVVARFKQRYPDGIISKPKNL
Sequence of METTL3/METTL14 (Q9HCE5 whole entry partner, species assumed): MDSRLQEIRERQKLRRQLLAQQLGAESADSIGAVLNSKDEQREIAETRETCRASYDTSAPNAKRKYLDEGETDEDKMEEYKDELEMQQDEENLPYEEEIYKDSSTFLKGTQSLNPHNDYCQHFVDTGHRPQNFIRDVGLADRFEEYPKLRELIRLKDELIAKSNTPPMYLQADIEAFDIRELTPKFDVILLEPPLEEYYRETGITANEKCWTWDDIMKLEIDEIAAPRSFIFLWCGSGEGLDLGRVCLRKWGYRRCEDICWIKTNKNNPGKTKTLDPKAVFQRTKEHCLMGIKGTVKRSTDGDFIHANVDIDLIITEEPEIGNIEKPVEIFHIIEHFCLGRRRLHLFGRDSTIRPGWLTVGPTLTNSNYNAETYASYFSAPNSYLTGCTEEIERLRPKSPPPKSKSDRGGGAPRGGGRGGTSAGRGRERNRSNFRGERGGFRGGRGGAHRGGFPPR
Summary of the method: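 METTL3/METTL14 at 2.5 nM, preincubated 5 min with compound in 20 mM HEPES pH 7.5, 50 mM KCl, 250 μM MgCl2, 1 mM DTT, at ambient temperature. Started with 100 nM 3′-biotinylated RNA and 100 nM ³H-SAM, quenched at 30 min with 15 μM cold SAM. Methylation read by scintillation on streptavidin flashplates.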

[4] = PRMT5 biochemical assay, read-out: PRMT5 IC50
[5] = METTL3 biochemical assay, read-out: METTL3 IC50
[6] = read-out: METTL1 IC50, METTL1 biochemical assay

CNc1ccc2ccc(OC[C@H]3O[C@@H](n4cc(C5CCCC5)c5c(N)ncnc54)C[C@@H]3O)cc2n1 [I-30, (2R,3S,5R)-5-(4-amino-5-cyclopentyl-7H-pyrrolo[2,3-d]pyrimidin-7-yl)-2-(((2-(methylamino)quinolin-7-yl)oxy)methyl)tetrahydrofuran-3-ol]
IC50 (MOLM-13 cells [1]): 1000 to 10000 nM
IC50 (MOLM-13 cells [2]; MOLM-13, 96 h): < 1000 nM
IC50 (PRMT5-MEP50; [4]): > 1000 nM
IC50 [3]: 1000 to 10000 nM
IC50 (METTL1/WDR4): > 1000 nM
IC50 (METTL3/METTL14; [5]): < 10 nM

CN(C)c1ccc2ccc(OC[C@H]3O[C@@H](n4cc(C5CCCC5)c5c(N)ncnc54)[C@H](O)[C@@H]3O)cc2n1 [I-42]
IC50 (MOLM-13 cells [1]): 1000 to 10000 nM
IC50 (MOLM-13 cells [2]; MOLM-13, 96 h): 1000 to 10000 nM
IC50 (PRMT5-MEP50; [4]): 10 to 100 nM
IC50 [3]: 1000 to 10000 nM
IC50 (METTL1/WDR4; [6]): > 1000 nM
IC50 (METTL3/METTL14; [5]): < 10 nM

Nc1ncnc2c1ccn2[C@@H]1O[C@H](COc2ccc3ccc(N4CCCC4)nc3c2)[C@@H](O)[C@H]1O [I-75]
IC50 (MOLM-13 cells [1]): > 10000 nM
IC50 (PRMT5-MEP50; [4]): 10 to 100 nM
IC50 [3]: 1000 to 10000 nM
IC50 (METTL1/WDR4; [6]): > 1000 nM
IC50 (METTL3/METTL14; [5]): 10 to 100 nM

CNc1ccc2ccc(OC[C@H]3O[C@@H](n4cc(-c5ncco5)c5c(N)ncnc54)[C@@H](F)[C@@H]3O)cc2n1 [I-150]
IC50 (MOLM-13 cells [1]): < 1000 nM
IC50 (MOLM-13 cells [2]): < 1000 nM
IC50 (PRMT5-MEP50; read-out: PRMT5 IC50, PRMT5 biochemical assay): 10 to 100 nM
IC50 [3]: < 1000 nM
IC50 (METTL3/METTL14; read-out: METTL3 IC50, METTL3 biochemical assay): < 10 nM

CNc1ccc2ccc(OC[C@H]3O[C@@H](n4cc([C@H]5CCCO5)c5c(N)ncnc54)[C@@H](F)[C@@H]3O)cc2n1 [I-151]
IC50 (MOLM-13 cells [1]): 1000 to 10000 nM
IC50 (MOLM-13 cells [2]; MOLM-13, 96 h): < 1000 nM
IC50 (PRMT5-MEP50; [4]): 100 to 1000 nM
IC50 [3]: 1000 to 10000 nM
IC50 (METTL3/METTL14; [5]): < 10 nM

CNc1ccc2ccc(OC[C@H]3O[C@@H](n4cc([C@@H]5CCCO5)c5c(N)ncnc54)[C@@H](F)[C@@H]3O)cc2n1 [I-152]
IC50 (MOLM-13 cells [1]): 1000 to 10000 nM
IC50 (MOLM-13 cells [2]; MOLM-13, 96 h): < 1000 nM
IC50 (PRMT5-MEP50; [4]): > 1000 nM
IC50 [3]: < 1000 nM
IC50 (METTL3/METTL14; [5]): < 10 nM

Nc1ncnc2c1c([C@@H]1CCCO1)cn2[C@@H]1O[C@H](COc2ccc3ccc(N4CCC4)nc3c2)[C@@H](O)[C@@H]1F [I-158]
IC50 (MOLM-13 cells [1]): 1000 to 10000 nM
IC50 (MOLM-13 cells [2]; MOLM-13, 96 h): < 1000 nM
IC50 [3]: < 1000 nM
IC50 (METTL3/METTL14; [5]): < 10 nM

Cn1ccc(-c2cn([C@H]3C[C@H](O)[C@@H](COc4ccc5ccc(N6CCC6)nc5c4)O3)c3ncnc(N)c23)n1 [I-164]
IC50 (MOLM-13 cells [1]): 1000 to 10000 nM
IC50 (MOLM-13 cells [2]): < 1000 nM
IC50 (PRMT5-MEP50): > 1000 nM
IC50 [3]: < 1000 nM
IC50 (METTL3/METTL14): < 10 nM

Nc1ncnc2c1c(-n1cccn1)cn2[C@H]1C[C@H](O)[C@@H](COc2ccc3ccc(N4CCC4)nc3c2)O1 [I-170]
IC50 (MOLM-13 cells [1]): 1000 to 10000 nM
IC50 (MOLM-13 cells [2]): 1000 to 10000 nM
IC50 (PRMT5-MEP50): > 1000 nM
IC50 [3]: < 1000 nM
IC50 (METTL3/METTL14): < 10 nM

Cn1ccc(-c2cn([C@@H]3O[C@H](COc4ccc5ccc(N6CC(O)C6)nc5c4)[C@@H](O)[C@@H]3F)c3ncnc(N)c23)n1 [I-171]
IC50 (MOLM-13 cells [1]): 1000 to 10000 nM
IC50 (MOLM-13 cells [2]): 1000 to 10000 nM
IC50 (PRMT5-MEP50): > 1000 nM
IC50 [3]: 1000 to 10000 nM
IC50 (METTL3/METTL14): < 10 nM

Cn1ccc(-c2cn([C@H]3C[C@H](O)[C@@H](COc4ccc5ccc(NC6CC6)nc5c4)O3)c3ncnc(N)c23)n1 [I-179]
IC50 (MOLM-13 cells [1]): 1000 to 10000 nM
IC50 (MOLM-13 cells [2]): < 1000 nM
IC50 (PRMT5-MEP50): 100 to 1000 nM
IC50 [3]: 1000 to 10000 nM
IC50 (METTL3/METTL14): < 10 nM

Cn1ccc(-c2cn([C@@H]3O[C@H](COc4ccc5ccc(NC6CCC6)nc5c4)[C@@H](O)[C@@H]3F)c3ncnc(N)c23)n1 [I-183]
IC50 (MOLM-13 cells [1]): < 1000 nM
IC50 (MOLM-13 cells [2]): < 1000 nM
IC50 (PRMT5-MEP50): > 1000 nM
IC50 [3]: < 1000 nM
IC50 (METTL3/METTL14): < 10 nM

Cc1coc(-c2cn([C@@H]3O[C@H](COc4ccc5ccc(N6CCC6)nc5c4)[C@@H](O)[C@@H]3F)c3ncnc(N)c23)n1 [I-220]
IC50 (MOLM-13 cells [1]): 1000 to 10000 nM
IC50 (MOLM-13 cells [2]): < 1000 nM
IC50 (PRMT5-MEP50): > 1000 nM
IC50 [3]: < 1000 nM
IC50 (METTL3/METTL14): < 10 nM

Nc1ncnc2c1c(-n1cccn1)cn2[C@@H]1O[C@H](COc2ccc3ccc(N4CCC4)nc3c2)[C@@H](O)[C@@H]1F [I-222]
IC50 (MOLM-13 cells [1]): < 1000 nM
IC50 (MOLM-13 cells [2]): < 1000 nM
IC50 (PRMT5-MEP50): > 1000 nM
IC50 [3]: < 1000 nM
IC50 (METTL3/METTL14): < 10 nM

CCc1cc(NC)c2ccc(OC[C@H]3O[C@@H](n4cc(-c5ccn(C)n5)c5c(N)ncnc54)[C@@H](F)[C@@H]3O)cc2n1 [I-232]
IC50 (MOLM-13 cells [1]): > 10000 nM
IC50 (PRMT5-MEP50): 100 to 1000 nM
IC50 [3]: > 10000 nM
IC50 (METTL1/WDR4; METTL1 biochemical assay, read-out: METTL1 IC50): > 1000 nM
IC50 (METTL3/METTL14): < 10 nM
